We go through four molecules from paper PMC11062922 (Nature Chemical Biology, 2023).

One experiment concerns the target T1, EPHA4 (Homo sapiens, UniProt P54764).
T1 construct: endogenous in cells
Nature of the experiment: Kinobeads two-dose competition binding: EPHA4. The following applies: read-out: Lestaurtinib Drugmatrix value, Gene Name EPHA4.

Another experiment has as its target T2, BMPR1B (Homo sapiens, UniProt O00238).
T2 construct: endogenous in cells
In words: Kinobeads two-dose competition binding: BMPR1B. The following applies: read-out: Lestaurtinib Drugmatrix value, Gene Name BMPR1B.

A further experiment deals with T3, BUB1 (Homo sapiens, UniProt O43683).
T3 construct: endogenous in cells
Nature of the experiment: Kinobeads two-dose competition binding: BUB1. The note with it: read-out: Lestaurtinib Drugmatrix value, Gene Name BUB1.

Another experiment concerns the target T4, PRKAR2A (Homo sapiens, UniProt P13861).
T4 construct: to maximize the representation of endogenous proteins; endogenous in cells
Nature of the experiment: Kinobeads competition binding, Lestaurtinib control replicates: PRKAR2A. The note with it: read-out: Lestaurtinib Drugmatrix value; Gene Name PRKAR2A; one column per experiment number and replicate (R1-R3).

Another experiment has as its target T5, RIPK2 (Homo sapiens, UniProt O43353).
T5 construct: endogenous in cells
In words: Kinobeads full dose-response competition binding: RIPK2. The note with it: Gene Name RIPK2.

A further experiment deals with T6, CIT (Homo sapiens, UniProt O14578).
T6 construct: endogenous in cells
In words: Kinobeads full dose-response competition binding: CIT. The note with it: Gene Name CIT.

The target in a further experiment is T7, MOB1A (Homo sapiens, UniProt Q9H8S9).
T7 construct: to maximize the representation of endogenous proteins; endogenous in cells
T7 sequence (Q9H8S9 2-216 limits assumed): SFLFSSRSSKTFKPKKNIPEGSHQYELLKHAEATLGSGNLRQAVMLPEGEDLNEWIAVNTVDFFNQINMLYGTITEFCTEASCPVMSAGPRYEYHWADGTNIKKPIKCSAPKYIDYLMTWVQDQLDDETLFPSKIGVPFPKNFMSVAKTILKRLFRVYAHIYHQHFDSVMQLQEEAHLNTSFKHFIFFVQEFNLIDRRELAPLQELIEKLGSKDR
T7 sequence (O95835 1-1130 partner): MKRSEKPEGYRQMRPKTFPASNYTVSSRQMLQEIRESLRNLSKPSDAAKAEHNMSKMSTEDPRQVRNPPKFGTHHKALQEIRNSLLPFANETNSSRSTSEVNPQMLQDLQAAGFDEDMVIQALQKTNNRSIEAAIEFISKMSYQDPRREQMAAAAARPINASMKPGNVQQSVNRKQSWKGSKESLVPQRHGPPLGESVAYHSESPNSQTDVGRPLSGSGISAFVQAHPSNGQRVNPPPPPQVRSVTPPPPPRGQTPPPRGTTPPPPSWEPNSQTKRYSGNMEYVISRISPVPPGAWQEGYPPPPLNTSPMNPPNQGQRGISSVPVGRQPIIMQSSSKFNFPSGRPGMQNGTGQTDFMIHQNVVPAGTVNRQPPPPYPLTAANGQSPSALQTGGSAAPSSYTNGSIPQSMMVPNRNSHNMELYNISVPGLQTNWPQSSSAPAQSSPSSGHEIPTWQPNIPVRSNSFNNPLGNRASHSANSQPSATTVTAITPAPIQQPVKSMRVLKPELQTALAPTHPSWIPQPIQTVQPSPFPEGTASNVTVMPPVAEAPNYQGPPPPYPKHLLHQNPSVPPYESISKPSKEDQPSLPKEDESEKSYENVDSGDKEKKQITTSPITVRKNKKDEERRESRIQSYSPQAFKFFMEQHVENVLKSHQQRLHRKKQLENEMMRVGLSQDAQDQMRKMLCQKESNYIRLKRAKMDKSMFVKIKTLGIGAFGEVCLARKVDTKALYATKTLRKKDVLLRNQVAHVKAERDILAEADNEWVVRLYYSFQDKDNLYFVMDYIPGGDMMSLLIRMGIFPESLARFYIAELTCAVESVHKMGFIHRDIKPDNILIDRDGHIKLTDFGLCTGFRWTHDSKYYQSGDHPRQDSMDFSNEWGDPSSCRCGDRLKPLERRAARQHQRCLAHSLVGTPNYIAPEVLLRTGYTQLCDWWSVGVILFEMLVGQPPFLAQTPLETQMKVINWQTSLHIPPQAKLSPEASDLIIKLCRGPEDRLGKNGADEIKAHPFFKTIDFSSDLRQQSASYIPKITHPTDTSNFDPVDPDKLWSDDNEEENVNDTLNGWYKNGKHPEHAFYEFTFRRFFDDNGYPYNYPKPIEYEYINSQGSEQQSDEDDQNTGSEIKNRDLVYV
In words: Kinobeads full dose-response competition binding: MOB1A. The following applies: Gene Name MOB1A.

The target of another experiment is T8, PRKCD (Homo sapiens, UniProt Q05655).
T8 construct: endogenous in cells
In words: Kinobeads full dose-response competition binding: PRKCD. The note with it: Gene Name PRKCD.

The subject of the next experiment is ERBB2. The following applies: ERBB2 (2nd target, 2nd value); ref chemicalprobes.org; cited from earlier work.
Where [1] appears, read: EC50 with Correction, doses in nM, read-out: apparent Kd.
Where [2] appears, read: eight-dose curve fit, doses in nM.

Structures are written as SMILES.

T6 sequence (O14578 whole entry): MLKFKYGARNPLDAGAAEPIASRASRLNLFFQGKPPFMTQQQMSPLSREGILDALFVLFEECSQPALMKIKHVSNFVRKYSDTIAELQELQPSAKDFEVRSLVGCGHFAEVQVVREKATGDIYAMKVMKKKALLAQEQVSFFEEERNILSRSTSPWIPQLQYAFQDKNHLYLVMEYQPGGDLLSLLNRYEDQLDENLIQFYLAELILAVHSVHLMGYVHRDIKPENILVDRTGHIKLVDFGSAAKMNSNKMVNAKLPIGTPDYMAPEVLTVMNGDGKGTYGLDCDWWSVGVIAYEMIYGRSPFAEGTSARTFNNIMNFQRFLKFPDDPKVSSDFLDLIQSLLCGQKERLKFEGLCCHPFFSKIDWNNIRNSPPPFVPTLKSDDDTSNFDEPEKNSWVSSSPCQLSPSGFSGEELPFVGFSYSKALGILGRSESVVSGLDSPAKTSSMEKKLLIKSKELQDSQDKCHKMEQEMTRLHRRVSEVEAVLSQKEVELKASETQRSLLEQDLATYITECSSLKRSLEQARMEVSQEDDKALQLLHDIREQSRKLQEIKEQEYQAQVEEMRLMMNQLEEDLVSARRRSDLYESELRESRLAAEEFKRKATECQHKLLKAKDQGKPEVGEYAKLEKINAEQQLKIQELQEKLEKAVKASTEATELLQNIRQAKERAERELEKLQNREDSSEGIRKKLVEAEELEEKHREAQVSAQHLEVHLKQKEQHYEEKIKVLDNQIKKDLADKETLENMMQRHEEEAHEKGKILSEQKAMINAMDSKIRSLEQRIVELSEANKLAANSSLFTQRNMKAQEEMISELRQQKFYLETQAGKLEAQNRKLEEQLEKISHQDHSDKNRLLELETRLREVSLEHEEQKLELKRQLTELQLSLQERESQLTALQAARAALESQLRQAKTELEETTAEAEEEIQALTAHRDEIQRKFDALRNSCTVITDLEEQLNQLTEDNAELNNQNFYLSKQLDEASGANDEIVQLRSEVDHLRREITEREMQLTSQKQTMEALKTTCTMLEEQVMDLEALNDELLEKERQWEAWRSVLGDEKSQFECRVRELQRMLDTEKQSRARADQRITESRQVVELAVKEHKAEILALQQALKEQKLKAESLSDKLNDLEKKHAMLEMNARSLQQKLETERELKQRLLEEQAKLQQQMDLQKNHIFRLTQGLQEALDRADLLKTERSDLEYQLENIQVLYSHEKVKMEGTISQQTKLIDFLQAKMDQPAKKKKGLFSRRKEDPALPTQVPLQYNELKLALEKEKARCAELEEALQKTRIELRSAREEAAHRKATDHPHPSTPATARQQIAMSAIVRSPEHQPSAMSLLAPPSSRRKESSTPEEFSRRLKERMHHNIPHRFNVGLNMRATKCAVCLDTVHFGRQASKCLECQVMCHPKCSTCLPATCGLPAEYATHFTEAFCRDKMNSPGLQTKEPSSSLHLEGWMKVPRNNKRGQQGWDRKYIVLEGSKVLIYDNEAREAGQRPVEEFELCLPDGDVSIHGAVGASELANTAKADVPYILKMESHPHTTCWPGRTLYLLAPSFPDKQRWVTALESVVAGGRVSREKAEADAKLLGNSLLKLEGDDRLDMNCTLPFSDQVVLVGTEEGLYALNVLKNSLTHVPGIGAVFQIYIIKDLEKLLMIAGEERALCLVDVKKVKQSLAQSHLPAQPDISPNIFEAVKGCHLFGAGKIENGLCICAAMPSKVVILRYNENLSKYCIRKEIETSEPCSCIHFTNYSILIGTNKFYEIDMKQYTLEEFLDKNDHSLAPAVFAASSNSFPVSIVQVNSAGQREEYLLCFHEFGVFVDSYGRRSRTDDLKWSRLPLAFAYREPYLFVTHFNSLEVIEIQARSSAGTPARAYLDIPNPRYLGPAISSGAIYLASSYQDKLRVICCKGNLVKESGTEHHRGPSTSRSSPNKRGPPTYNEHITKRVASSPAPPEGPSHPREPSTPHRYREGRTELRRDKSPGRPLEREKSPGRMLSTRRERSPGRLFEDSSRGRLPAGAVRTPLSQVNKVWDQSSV
T8 sequence (Q05655 whole entry): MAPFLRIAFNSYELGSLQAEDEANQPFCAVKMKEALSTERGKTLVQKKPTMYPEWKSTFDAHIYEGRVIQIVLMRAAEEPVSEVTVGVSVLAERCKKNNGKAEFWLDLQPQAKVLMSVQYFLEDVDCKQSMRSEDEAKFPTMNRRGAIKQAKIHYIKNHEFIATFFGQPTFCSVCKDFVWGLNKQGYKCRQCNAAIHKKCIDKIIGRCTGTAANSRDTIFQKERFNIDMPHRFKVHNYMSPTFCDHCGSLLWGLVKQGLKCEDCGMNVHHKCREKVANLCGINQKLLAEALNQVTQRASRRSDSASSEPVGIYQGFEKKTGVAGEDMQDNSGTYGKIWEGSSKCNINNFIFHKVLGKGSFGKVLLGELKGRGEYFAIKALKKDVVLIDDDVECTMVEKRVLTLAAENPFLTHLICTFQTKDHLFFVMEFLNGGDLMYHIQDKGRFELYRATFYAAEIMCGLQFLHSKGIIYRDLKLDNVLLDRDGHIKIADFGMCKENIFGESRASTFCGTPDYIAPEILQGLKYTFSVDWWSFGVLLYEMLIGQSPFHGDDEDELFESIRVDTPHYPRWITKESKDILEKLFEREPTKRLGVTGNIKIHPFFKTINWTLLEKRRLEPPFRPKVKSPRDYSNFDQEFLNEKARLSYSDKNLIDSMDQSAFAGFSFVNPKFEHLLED
T5 sequence (O43353 whole entry): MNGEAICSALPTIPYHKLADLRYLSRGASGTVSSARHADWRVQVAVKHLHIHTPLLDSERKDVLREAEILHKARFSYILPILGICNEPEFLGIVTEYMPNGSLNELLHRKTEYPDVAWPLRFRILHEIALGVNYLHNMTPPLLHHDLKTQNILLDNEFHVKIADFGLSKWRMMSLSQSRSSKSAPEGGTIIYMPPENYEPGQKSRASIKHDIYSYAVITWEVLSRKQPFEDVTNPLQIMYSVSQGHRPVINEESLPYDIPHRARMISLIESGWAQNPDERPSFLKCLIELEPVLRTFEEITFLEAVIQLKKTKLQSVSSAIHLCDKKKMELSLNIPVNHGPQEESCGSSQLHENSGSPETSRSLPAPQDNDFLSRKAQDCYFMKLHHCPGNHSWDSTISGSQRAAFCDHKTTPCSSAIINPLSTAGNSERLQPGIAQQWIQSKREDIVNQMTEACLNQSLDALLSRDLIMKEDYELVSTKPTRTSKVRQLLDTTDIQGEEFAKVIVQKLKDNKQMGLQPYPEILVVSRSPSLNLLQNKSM
T1 sequence (P54764 20-986): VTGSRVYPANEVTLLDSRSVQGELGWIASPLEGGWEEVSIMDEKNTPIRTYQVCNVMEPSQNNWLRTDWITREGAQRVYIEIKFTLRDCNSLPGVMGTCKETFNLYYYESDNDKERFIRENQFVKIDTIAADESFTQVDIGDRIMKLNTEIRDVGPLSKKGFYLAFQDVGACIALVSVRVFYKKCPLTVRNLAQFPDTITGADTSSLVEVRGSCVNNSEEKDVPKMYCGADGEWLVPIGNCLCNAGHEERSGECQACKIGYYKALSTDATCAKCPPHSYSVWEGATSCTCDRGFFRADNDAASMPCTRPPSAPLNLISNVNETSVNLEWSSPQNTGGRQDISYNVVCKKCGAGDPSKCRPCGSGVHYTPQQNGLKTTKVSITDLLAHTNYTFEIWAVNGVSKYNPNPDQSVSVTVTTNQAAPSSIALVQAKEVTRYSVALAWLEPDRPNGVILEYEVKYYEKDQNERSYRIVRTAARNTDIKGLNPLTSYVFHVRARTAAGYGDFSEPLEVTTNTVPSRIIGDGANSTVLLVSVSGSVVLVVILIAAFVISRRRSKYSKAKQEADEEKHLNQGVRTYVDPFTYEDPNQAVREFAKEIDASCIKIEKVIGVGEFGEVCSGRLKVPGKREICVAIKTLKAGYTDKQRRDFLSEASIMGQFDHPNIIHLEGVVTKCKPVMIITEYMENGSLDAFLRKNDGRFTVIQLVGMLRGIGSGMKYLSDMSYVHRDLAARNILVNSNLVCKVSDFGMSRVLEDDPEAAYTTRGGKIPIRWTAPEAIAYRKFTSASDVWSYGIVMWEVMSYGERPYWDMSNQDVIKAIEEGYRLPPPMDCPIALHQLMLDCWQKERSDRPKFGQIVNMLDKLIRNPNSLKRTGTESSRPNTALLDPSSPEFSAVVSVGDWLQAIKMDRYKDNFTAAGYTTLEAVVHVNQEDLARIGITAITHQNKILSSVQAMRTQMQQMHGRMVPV
T2 sequence (O00238 14-502): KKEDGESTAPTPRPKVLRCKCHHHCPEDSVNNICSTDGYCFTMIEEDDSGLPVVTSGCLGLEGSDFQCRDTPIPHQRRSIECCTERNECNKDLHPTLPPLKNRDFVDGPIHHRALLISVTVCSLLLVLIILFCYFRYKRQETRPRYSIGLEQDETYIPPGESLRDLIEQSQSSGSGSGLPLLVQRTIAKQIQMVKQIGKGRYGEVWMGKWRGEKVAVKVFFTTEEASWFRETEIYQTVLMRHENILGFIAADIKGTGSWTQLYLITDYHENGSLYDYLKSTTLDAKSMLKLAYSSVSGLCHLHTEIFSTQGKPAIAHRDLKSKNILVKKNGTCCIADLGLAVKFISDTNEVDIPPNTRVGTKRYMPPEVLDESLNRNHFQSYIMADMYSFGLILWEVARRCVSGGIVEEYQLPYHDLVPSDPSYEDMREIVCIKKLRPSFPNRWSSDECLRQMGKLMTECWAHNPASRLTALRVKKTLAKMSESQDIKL

For `C[C@]12O[C@H](C[C@]1(O)CO)n1c3ccccc3c3c4c(c5c6ccccc6n2c5c31)CNC4=O` [Lestaurtinib], the potency estimated from few doses was 268 nM at EPHA4, 737 nM at BMPR1B, 854 nM at BUB1 and 979 nM on PRKAR2A.
Take `NCc1ccc(-c2nc(-c3ccncc3)c(-c3ccc(Cl)c(O)c3)[nH]2)cc1` [SB-476429-A]: the “Relative Intensity 0.3nM” value on RIPK2 (0.3nM compound, DMSO = 1) came out at 0.9341. The “Relative Intensity 1nM” value at RIPK2 (1nM compound, DMSO = 1) was 0.8676. Moreover, the “Relative Intensity 3nM” value at RIPK2 (3nM compound, DMSO = 1) was found to be 0.8459. At RIPK2 (10nM compound, DMSO = 1), the “Relative Intensity 10nM” value was 0.8036. The “Relative Intensity 30nM” value at RIPK2 (30nM compound, DMSO = 1) was found to be 0.6574. Further, on RIPK2 (100nM compound, DMSO = 1), the “Relative Intensity 100nM” value was 0.3411. For the same molecule, the “Relative Intensity 300nM” value at RIPK2 (300nM compound, DMSO = 1) is 0.1841. In addition, the “Relative Intensity 1000nM” value at RIPK2 (1000nM compound, DMSO = 1) is on record as 0.1065. In addition, the Kd at RIPK2 (setting [1]) turned out to be 28.8 nM. At RIPK2 (setting [2]), this molecule had an EC50 of 55.9 nM.
As to `CCn1c(-c2nonc2N)nc2c(C#CC(C)(C)O)nc(OCCN)cc21` [GSK902056A], the “Relative Intensity 0.3nM” value on CIT (0.3nM compound, DMSO = 1) came out at 1.0296; at MOB1A (0.3nM compound, DMSO = 1) it was 1.163; on PRKCD (0.3nM compound, DMSO = 1), 0.9769. Besides, the “Relative Intensity 1nM” value at CIT (1nM compound, DMSO = 1) was determined as 1.0023; at MOB1A (1nM compound, DMSO = 1), 0.99; on PRKCD (1nM compound, DMSO = 1) it was 1.01. The “Relative Intensity 3nM” value at CIT (3nM compound, DMSO = 1) turned out to be 1.019; on MOB1A (3nM compound, DMSO = 1), 1.359; at PRKCD (3nM compound, DMSO = 1), 1.114. The “Relative Intensity 10nM” value at CIT (10nM compound, DMSO = 1) is on record as 1.082; at MOB1A (10nM compound, DMSO = 1) it was 0.9582; at PRKCD (10nM compound, DMSO = 1), 1.044. Also, the “Relative Intensity 30nM” value is on record as 1.01 at CIT (30nM compound, DMSO = 1); 0.9019 on MOB1A (30nM compound, DMSO = 1); 0.8254 on PRKCD (30nM compound, DMSO = 1). Also, the “Relative Intensity 100nM” value at CIT (100nM compound, DMSO = 1) is given as 0.9604; at MOB1A (100nM compound, DMSO = 1), 0.7347; on PRKCD (100nM compound, DMSO = 1), 0.6161. Also, the “Relative Intensity 300nM” value is given as 0.7575 at CIT (300nM compound, DMSO = 1); 0.3297 on MOB1A (300nM compound, DMSO = 1); 0.3888 at PRKCD (300nM compound, DMSO = 1). The “Relative Intensity 1000nM” value on CIT (1000nM compound, DMSO = 1) stood at 0.5648; on MOB1A (1000nM compound, DMSO = 1), 0; on PRKCD (1000nM compound, DMSO = 1), 0.1734. Besides, the Kd came to 279 nM at CIT (setting [1]), 223 nM on MOB1A (setting [1]) and 124 nM at PRKCD (setting [1]). Moreover, the figures for the EC50 on CIT (setting [2]), on MOB1A (setting [2]) and on PRKCD (setting [2]) were 279 nM, 223 nM and 124 nM, respectively.
Turning to `CN(C)C/C=C/C(=O)Nc1cc2c(Nc3ccc(F)c(Cl)c3)ncnc2cc1O[C@H]1CCOC1` [Afatinib], the Potency value in the experiment with ERBB2 was 0.5 nM, 14 nM.

The EC50 is the concentration that produces a half-maximal response. Low readings indicate greater potency, high ones weaker potency.
